{
  "source": "patent US11479470B2",
  "about": "“Three-dimensional boron-rich clusters” (The Regents of the University of California, priority 2016, dated 2022)",
  "biological_target": "concanavalin A (ConA) (Canavalia ensiformis, UniProt P02866)",
  "assay": "Surface plasmon resonance (Biacore T100) binding of glycosylated OCN to immobilised lectin",
  "conditions": "injected at the highest mass concentration of [2l] shown (2.0 mg 1-1)",
  "experimental": "ConA was covalently attached to the Au-coated sensor chip's dextran layer via conventional amide coupling, and binding between ConA and the injected analyte was measured as a change in the refractive index (RI) and expressed in response units (RU). […] (See, e.g., Kamiya, N., et al., J. Am. Chem. Soc. 129, 3816-3817 (2007), the disclosure of which is incorporated herein by reference.)",
  "note": "Entries after “also recorded” stand apart in the source; their conditions may differ.",
  "data": [
    {"smiles": "O=C[C@H](O)[C@@H](O)[C@H](O)[C@H](O)CO", "note": "[D-glucose]", "values": [
      {"measurement": "binding response to ConA (controls)", "result": "minimal to no binding; also recorded: minimal binding"}
    ]}
  ]
}
